Laboratory results reported in patent US20240060146A1, “CHEMICAL SUBSTANCE EVALUATION SYSTEM USING MULTICOLOR LIGHT-EMITTING CELLS” (TOHOKU UNIVERSITY, priority 2020, published 2024).
Counter-ions that a name gives are not always drawn.

Key:
Assay type in all cases: cell-based
[1] = tested on: 2H4 cells; test: Evaluation of combination of IL-2 Luc LTT and IL-2 Luc assay; set-up: key: Positive (Pos): If the result is either LCT in the IL-2 Luc LTT or S in the IL-2 Luc assay, or both, the chemical substance is determined to be an immunosuppressive substance.; Negative (Neg): In the case other than the above, the chemical substance is determined to be a non-immunosuppressive substance; conditions: LCT in IL-2 Luc LTT or S in IL-2 Luc assay = Pos
Procedure: Positive (Pos): If the result is either LCT in the IL-2 Luc LTT or S in the IL-2 Luc assay, or both, the chemical substance is determined to be an immunosuppressive substance. Negative (Neg): In the case other than the above, the chemical substance is determined to be a non-immunosuppressive substance.

[2] = tested on: 2H4 cells; test: IL-2 Luc LTT: evaluation of chemical substance in 2H4 cells; conditions: for IL-2 Luc LTT: 1 h chemical, then 25 nM PMA and 1 μM ionomycin 24 h, class from Min % suppression (nIL2LA) and Min Inh-GAPLA
Procedure: (§1) 2H4 cells were established from Jurkat cells according to the method described in PTL 1. First, for the preparation of 2H4 cells, a plasmid having SLG introduced downstream of the IL-2 promoter, a plasmid having SLR introduced downstream of the G3PDH promoter, and a plasmid having SLO introduced downstream of the INF-γ promoter were prepared as internal standards. These plasmids contained a resistance gene for hygromycin B, puromycin, and neomycin downstream of SLG, SLR, and SLO, respectively. The conditions for drug selection after transfection of the host Jurkat cells were as follows: in the primary selection, the cells were cultured for 1 week in the presence of a drug. In the secondary selection culture, the cells that survived in the primary selection culture were seeded in a 96-well plate at 1 cell/well or 200 cells/well, and cultured for 2 weeks under the same drug conditions. After the secondary selection culture, the cells were subjected to clone selection from the two points of signal intensity and signal induction by drug treatment. The G3PDH promoter SLR was first introduced to establish monochromatic stable cell line Jurkat: G3PDH-SLR #14D1 cells. These cells were used as the parent cell line to introduce the INF-γ promoter SLO, thereby establishing bichromatic stable cell line Jurkat: INFγ-SLO/G3PDH-SLR #2B12 cells. Subsequently, the obtained cells were used as a parent cell line to introduce the IL-2 promoter SLG, thereby establishing trichromatic stable cell line Jurkat IL-2-SLG/INFγ-SLO/G3PDH-SLR #2H4 cells.
The chemical substances listed in Table 1 were evaluated using 2H4 cells. 2H4 cells were seeded in a 96-well plate at 1×10^4/well and treated with each chemical substance for 1 hour, followed by incubating the cells with 25 nM PMA and 1 μM ionomycin for 24 hours. After 24 hours from the treatment with PMA and ionomycin, Tripluck Assay Reagent (manufactured by Toyobo Co., Ltd.) was added, and the amount of luminescence was measured with a Phelios microplate luminometer (manufactured by Atto Corporation). For control, 2H4 cells untreated with a chemical substance were also examined in the same manner. The amount of luminescence of SLG luciferase activity (IL2LA), SLR luciferase activity (GAPLA), and SLO luciferase activity (IFNLA) was measured, and IL-2LA and IFNLA were each normalized by GAPLA and determined to be nIL2LA and nIFNLA, respectively. Thereafter, for the concentration of each chemical substance, “% suppression” and “Inh-GAPLA” were determined according to the following formulas (1) and (2), and the chemical substances were evaluated by using their minimum value (Min % suppression, Min Inh-GAPLA).
In the evaluation, for control, PMA/ionomycin-treated 2H4 cells and PMA/ionomycin-untreated 2H4 cells were also measured for nIL2LA.
(§2) % suppression={(nIL2LA in 2H4 cells untreated with a chemical substance)−(nIL2LA in 2H4 cells treated with a chemical substance)}×100/(nIL2LA in 2H4 cells untreated with a chemical substance) ---(1) Inh-GAPLA=(GAPLA in 2H4 cells treated with a chemical substance)/(GAPLA in 2H4 cells untreated with a chemical substance) ---(2)

[3] = tested on: 2H4 cells; test: IL-2 Luc assay: evaluation of chemical substance in 2H4 cells; conditions: for IL-2 Luc Assay: 1 h chemical, then PMA/ionomycin, luminescence after six hours, class from Min % suppression of nIL2LA
Procedure: as §1, §2
The chemical substances listed in Table 1 were evaluated using 2H4 cells. 2H4 cells were seeded in a 96-well plate at 2×10^5 cells/50 μl/well and treated with each chemical substance for 1 hour, followed by incubating the cells with 25 nM PMA and 1 µM ionomycin […]. After six hours from the treatment with PMA and ionomycin, Tripluc: Assay Reagent (manufactured by Toyobo Co., Ltd.) was added, and the amount of luminescence was measured with a Phelios microplate luminometer (manufactured by Atto Corporation). For control, 2H4 cells untreated with a chemical substance were also examined in the same manner. The amount of luminescence of SLG luciferase activity (IL2LA), SLR luciferase activity (GAPLA), and SLO luciferase activity (IFNLA) was measured, and IL-2LA and IFNLA were each normalized by GAPLA and determined to be nIL2LA and nIFNLA, respectively. Thereafter, for the concentration of each chemical substance, the value of suppression was calculated according to formula (1) above, and the chemical substances were evaluated by using their minimum value (Min suppression).

SMILES	Evaluation of Combination [1]	IL-2 Luc LTT [2]	IL-2 Luc Assay [3]	determination in IL-2 Luc LTT (in words) [2]	determination by the IL-2 Luc assay alone (in words) [3]
O=NN(CCCl)C(=O)NCCCl [Carmustine]	Pos	NLCT	S (Min %; suppression ≥35: Suppression (denoted as “S”; determined to have immunosuppressive action))		
CC(=O)CC(c1ccccc1)c1c(O)c2ccccc2oc1=O (centres unmarked) [Warfarin]	Neg	NLCT	N (−35<Min % suppression <35: No Effect (denoted as “N”; determined to not affect immunity))		
CCN(CC)CCCC(C)Nc1ccnc2cc(Cl)ccc12 (centres unmarked) [Chloroquine (CQ), Chloroquine]	Pos	NLCT	S (Min %; suppression ≥35: Suppression (denoted as “S”; determined to have immunosuppressive action))		
COc1c(C)c2c(c(O)c1C/C=C(\C)CCC(=O)O)C(=O)OC2 [Mycophenolic acid (MPA), Mycophenolic acid]	Pos	LCT (Min % suppression ≤−35 and Min Inh-GAPLA <0.7: Leukocyte toxic (denoted as “LCT”; determined to have cell growth inhibition action and/or metabolic activity inhibition action))	A (Min suppression ≤−35: Augmentation (denoted as “A”; determined to have immunoaugmenting action))	inhibit cell growth and/or metabolic activity	determined to not have imnunosuppressive action
CN(C/C=C/C#CC(C)(C)C)Cc1cccc2ccccc12 [Terbinafine]	Pos	NLCT	N (−35<Min % suppression <35: No Effect (denoted as “N”; determined to not affect immunity))		
O=C([O-])[O-].[Li+].[Li+] [Lithium carbonate]	Neg	I (−35<Min % suppression <35 and 0.7≤Min Inh-GAPLA: Inconclusive (denoted as “I”; possibly not measurable due to low water solubility))	N (−35<Min % suppression <35: No Effect (denoted as “N”; determined to not affect immunity))		
S=c1nc[nH]c2nc[nH]c12 [6-Mercaptoprine]	Neg	NLCT	N (−35<Min % suppression <35: No Effect (denoted as “N”; determined to not affect immunity))		
CO[C@H]1C[C@@H]2CC[C@@H](C)[C@@](O)(O2)C(=O)C(=O)N2CCCC[C@H]2C(=O)O[C@H]([C@H](C)C[C@@H]2CC[C@@H](O)[C@H](OC)C2)CC(=O)[C@H](C)/C=C(\C)[C@@H](O)[C@@H](OC)C(=O)[C@H](C)C[C@H](C)/C=C/C=C/C=C/1C [Rapamycin (RPM), Rapamycin]	Pos	LCT (Min % suppression ≤−35 and Min Inh-GAPLA <0.7: Leukocyte toxic (denoted as “LCT”; determined to have cell growth inhibition action and/or metabolic activity inhibition action))	N (−35<Min % suppression <35: No Effect (denoted as “N”; determined to not affect immunity))	inhibit cell growth and/or metabolic activity	
Cc1c(OCC(F)(F)F)ccnc1C[S+]([O-])c1nc2ccccc2[nH]1 (centres unmarked) [Lansoprazole]	Pos	NLCT	S (Min %; suppression ≥35: Suppression (denoted as “S”; determined to have immunosuppressive action))		

Now from value to compound, other results behind:

Evaluation of Combination [1]	SMILES	IL-2 Luc LTT [2]	IL-2 Luc Assay [3]	determination in IL-2 Luc LTT (in words) [2]	determination by the IL-2 Luc assay alone (in words) [3]
Pos	Nc1ccn([C@@H]2O[C@H](CO)[C@@H](O)C2(F)F)c(=O)n1 [Gemcitabine hydrochloride]	NLCT	N (−35<Min % suppression <35: No Effect (denoted as “N”; determined to not affect immunity))		
Neg	NS(=O)(=O)c1cc2c(cc1Cl)N=CNS2(=O)=O [Chlorothiazide]	NLCT	N (−35<Min % suppression <35: No Effect (denoted as “N”; determined to not affect immunity))		
Pos	C=CC[C@@H]1/C=C(\C)C[C@H](C)C[C@H](OC)[C@H]2O[C@@](O)(C(=O)C(=O)N3CCCC[C@H]3C(=O)O[C@H](/C(C)=C/[C@@H]3CC[C@@H](O)[C@H](OC)C3)[C@H](C)[C@@H](O)CC1=O)[C@H](C)C[C@@H]2OC [Tacrolimus (Tac), Tacrolimus]	NLCT	S (Min %; suppression ≥35: Suppression (denoted as “S”; determined to have immunosuppressive action))		
Neg	NNC(=O)c1ccncc1 [Isoniazid]	I (−35<Min % suppression <35 and 0.7≤Min Inh-GAPLA: Inconclusive (denoted as “I”; possibly not measurable due to low water solubility))	N (−35<Min % suppression <35: No Effect (denoted as “N”; determined to not affect immunity))		
Pos	Cc1ccc(=O)n(-c2ccccc2)c1 [Pirfenidone]	I (−35<Min % suppression <35 and 0.7≤Min Inh-GAPLA: Inconclusive (denoted as “I”; possibly not measurable due to low water solubility))	S (Min %; suppression ≥35: Suppression (denoted as “S”; determined to have immunosuppressive action))		
Pos	NC(=O)c1ncn([C@@H]2O[C@H](CO)[C@@H](O)[C@H]2O)c1O [Mizoribine (MZR), Mizoribine]	LCT (Min % suppression ≤−35 and Min Inh-GAPLA <0.7: Leukocyte toxic (denoted as “LCT”; determined to have cell growth inhibition action and/or metabolic activity inhibition action))	N (−35<Min % suppression <35: No Effect (denoted as “N”; determined to not affect immunity))	inhibit cell growth and/or metabolic activity	determined to not have imnunosuppressive action
Pos	Cc1cn([C@H]2C[C@H](N=[N+]=[N-])[C@@H](CO)O2)c(=O)[nH]c1=O [Retrovir]	NLCT	A (Min suppression ≤−35: Augmentation (denoted as “A”; determined to have immunoaugmenting action))		
Neg	Nc1nc2c(ncn2COCCO)c(=O)[nH]1 [Acyclovir]	I (−35<Min % suppression <35 and 0.7≤Min Inh-GAPLA: Inconclusive (denoted as “I”; possibly not measurable due to low water solubility))	N (−35<Min % suppression <35: No Effect (denoted as “N”; determined to not affect immunity))		
Neg	CC[C@H](C)C(=O)O[C@H]1C[C@H](O)C=C2C=C[C@H](C)[C@H](CC[C@@H](O)C[C@@H](O)CC(=O)O)[C@H]21 [Pravastatin]	I (−35<Min % suppression <35 and 0.7≤Min Inh-GAPLA: Inconclusive (denoted as “I”; possibly not measurable due to low water solubility))	N (−35<Min % suppression <35: No Effect (denoted as “N”; determined to not affect immunity))		
